Reference: article PMC4631478, “Structure of AadA from Salmonella enterica: a monomeric aminoglycoside (3′′)(9) adenyltransferase” (Acta Crystallographica Section D: Biological Crystallography, 2015)
Where a chain is given by its changes, count along the chain named. Where two headings read alike, the source gives them in different places.

Assays:
[1] = biological target: T1, AadA R192A (Salmonella typhimurium, UniProt Q8ZPX9, R192A); test: ITC binding, AadA R192A; design: species or system Salmonella enterica; conditions: for Kd: in the presence of ATP, read-out: K d of substrate ligand (streptomycin / spectinomycin)
T1 construct: made in house; host or cells: Escherichia coli BL21 Star
T1 sequence (Q8ZPX9 1-262 R192A): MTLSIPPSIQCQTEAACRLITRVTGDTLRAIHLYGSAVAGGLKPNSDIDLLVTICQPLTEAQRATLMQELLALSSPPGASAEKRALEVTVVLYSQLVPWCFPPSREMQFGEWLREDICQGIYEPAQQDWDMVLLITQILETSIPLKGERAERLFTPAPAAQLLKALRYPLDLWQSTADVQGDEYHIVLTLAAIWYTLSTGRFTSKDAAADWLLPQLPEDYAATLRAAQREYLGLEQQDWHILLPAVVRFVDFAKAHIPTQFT
Description: (§1) Binding studies were performed at 25°C using a MicroCal iTC200 instrument (GE Healthcare). Wild-type or mutant AadA at 20–30 µM concentration was dialyzed overnight against 50 mM Tris–HCl pH 7.5, 200 mM NaCl, 5 mM MgCl2, 1 mM tris(2-carboxyethyl)phosphine and titrated with 500–1000 µM ATP, streptomycin (Sigma) or spectinomycin (Sigma) freshly dissolved in the same batch of dialysis buffer prior to each experiment. For titration of streptomycin/spectinomycin in the presence of ATP, a first titration of AadA with ATP to saturation was followed by a second titration with streptomycin/spectinomycin in buffer containing an equivalent concentration of ATP as in the cell. In this way, heats of dilution of ATP were avoided. At least […] consecutive injections of 2 µl were applied at 2 min intervals. The data were analyzed using the MicroCal Analysis plugin in Origin. All ITC data were analyzed assuming one set of binding sites. Each experiment was performed at least twice. For spectinomycin, the concentration used to fit the data was adjusted to the estimated active concentration in binding to AadA, assuming 1:1 binding.

[2] = biological target: T2, AadA D182N (Salmonella typhimurium, UniProt Q8ZPX9, D182N); test: ITC binding, AadA D182N; design: species or system Salmonella enterica; conditions: 25°C, in the presence of ATP, read-out: K d of substrate ligand (streptomycin / spectinomycin)
T2 construct: made in house; host or cells: Escherichia coli BL21 Star
T2 sequence (Q8ZPX9 1-262 D182N): T1 sequence (Q8ZPX9 1-262 R192A) with D182N, A192R
Description: as §1

[3] = biological target: T3, AadA K205A (Salmonella typhimurium, UniProt Q8ZPX9, K205A); test: ITC binding, AadA K205A; design: species or system Salmonella enterica; conditions: for Kd: in the presence of ATP, read-out: K d of substrate ligand (streptomycin / spectinomycin)
T3 construct: made in house; host or cells: Escherichia coli BL21 Star
T3 sequence (Q8ZPX9 1-262 K205A): T1 sequence (Q8ZPX9 1-262 R192A) with A192R, K205A
Description: as §1

[4] = tested on: bacterial growth; design: method as in vendor (Sigma); conditions: as sold; as estimated from a bacterial growth assay; ref vendor (Sigma); cited from earlier work
[5] = biological target: T4, AadA wild type (Salmonella typhimurium, UniProt Q8ZPX9); test: ITC binding, wild-type AadA; design: species or system Salmonella enterica; conditions: for Kd: ITC; for binding to AadA in the absence of ATP (ITC): data not shown
T4 construct: made in house; host or cells: Escherichia coli BL21 Star
T4 sequence (Q8ZPX9 1-262): T1 sequence (Q8ZPX9 1-262 R192A) with A192R
Description: as §1

[6] = tested on: AadA Glu87 mutants (E87A and E87Q); test: ITC binding, Glu87 mutants of AadA stated together; design: species or system Salmonella enterica
Description: as §1

[7] = biological target: T5, AadA E87A (Salmonella typhimurium, UniProt Q8ZPX9, E87A); test: ITC binding, AadA E87A; design: species or system Salmonella enterica; conditions: 25°C, in the presence of ATP, nb = no binding detected
T5 construct: made in house; host or cells: Escherichia coli BL21 Star
T5 sequence (Q8ZPX9 1-262 E87A): T1 sequence (Q8ZPX9 1-262 R192A) with E87A, A192R
Description: as §1

[8] = biological target: T6, AadA E87Q (Salmonella typhimurium, UniProt Q8ZPX9, E87Q); test: ITC binding, AadA E87Q; design: species or system Salmonella enterica; conditions: 25°C, in the presence of ATP, nb = no binding detected
T6 construct: made in house; host or cells: Escherichia coli BL21 Star
T6 sequence (Q8ZPX9 1-262 E87Q): T1 sequence (Q8ZPX9 1-262 R192A) with E87Q, A192R
Description: as §1

[9] = biological target: T7, AadA W112F (Salmonella typhimurium, UniProt Q8ZPX9, W112F); test: ITC binding, AadA W112F; design: species or system Salmonella enterica; conditions: 25°C, in the presence of ATP, read-out: K d of substrate ligand (streptomycin / spectinomycin)
T7 construct: made in house; host or cells: Escherichia coli BL21 Star
T7 sequence (Q8ZPX9 1-262 W112F): T1 sequence (Q8ZPX9 1-262 R192A) with W112F, A192R
Description: as §1

[10] = 25°C, in the presence of ATP, wild type AadA, read-out: K d of substrate ligand (streptomycin / spectinomycin)
[11] = ITC, 25°C, 5 mM MgCl2, nb = no binding detected

With `CN[C@@H]1[C@H](O)[C@H](NC)[C@H]2O[C@@]3(O)C(=O)C[C@@H](C)O[C@H]3O[C@@H]2[C@H]1O` [Spectinomycin, spectinomycin] as the molecule, how does the Kd ([1]; ITC, 25°C) read?
Its Kd is greater than 30000 nM.

And the Kd [2]?
Its Kd is greater than 30000 nM.

What about the Kd ([3]; ITC, 25°C) of the same molecule?
Its Kd is greater than 10000 nM.

And the potency [4]?
The potency was 603 µg/mg.

And the Kd [5, 10]?
Its Kd is 500 nM.

And the “binding to AadA in the absence of ATP (ITC)” value [5]?
The value was “did not display detectable binding”.

And the “activity in binding to AadA, of the assumed active concentration” value ([5]; from fit of the ITC data assuming 1:1 binding)?
The value was 31%.

What about the “binding of spectinomycin (ITC)” value ([6]; Glu87 mutants) of the same molecule?
The value was “no measurable binding”.

And the “K d of substrate ligand (streptomycin / spectinomycin)” value [7]?
Its value is “nb”.

And the “K d of substrate ligand (streptomycin / spectinomycin)” value [8]?
The value was “nb”.

What about the Kd [9] of the same molecule?
Its Kd is 600 nM.

With `Nc1ncnc2c1ncn2[C@@H]1O[C@H](COP(=O)(O)OP(=O)(O)OP(=O)(O)O)[C@@H](O)[C@H]1O` [ATP] as the molecule, how does the “ATP binding (ITC)” value [1] read?
Its value is “no ATP binding could be detected”.

And the “K d(ATP)” value [1, 11]?
The value was “nb”.

And the “ATP binding (ITC)” value [3]?
Its value is “no ATP binding could be detected”.

What about the “K d(ATP)” value [3, 11] of the same molecule?
Its value is “nb”.

And the Kd ([5]; wild-type AadA, read-out: K d of ATP)?
The Kd was 13000 nM.

And the “lower affinity for ATP compared with the wild type” value ([6]; E87Q and E87A vs wild type, ITC)?
The value was “threefold to fourfold lower affinity”.

For `Nc1ncnc2c1ncn2[C@@H]1O[C@H](COP(=O)(O)CP(=O)(O)OP(=O)(O)O)[C@@H](O)[C@H]1O` [AMPCPP], which “binding to wild-type AadA (ITC)” value ([5]; nucleotide titrated alone) is on record?
Its value is “did not show any detectable binding”.

Which Kd ([1]; ITC, 25°C) does the source give for `[H]/N=C(/N)N[C@H]1[C@H](O)[C@@H](O)[C@H](O[C@@H]2O[C@@H](C)[C@](O)(C=O)[C@H]2O[C@@H]2O[C@@H](CO)[C@H](O)[C@@H](O)[C@@H]2NC)[C@@H](N/C(N)=N\[H])[C@@H]1O` [Streptomycin, streptomycin] here?
The Kd was greater than 100000 nM.

And the Kd [2]?
Its Kd is 700 nM.

What about the Kd ([3]; ITC, 25°C) of the same molecule?
The Kd was 1300 nM.

What about the Kd [5, 10] of the same molecule?
The Kd was 500 nM.

And the “binding to AadA in the absence of ATP (ITC)” value [5]?
Its value is “did not display detectable binding”.

What about the “lowered affinity for streptomycin” value ([6]; Glu87 mutants vs wild type, ITC) of the same molecule?
Its value is 20–40 fold.

What about the Kd [9] of the same molecule?
Its Kd is 800 nM.
